Test results: PubChem BioAssay AID1508612

Experiment: passive permeability, PAMPA, ADME assay (AID 1508612)
Settings: pH 7.4, 30.0 min, 50.0 µM

| SMILES | Papp [×10⁻⁶ cm/s] |
| --- | --- |
| CC(C)CN(C[C@@H](O)[C@H](Cc1ccccc1)NC(=O)O[C@@H]1CO[C@H]2OCC[C@H]21)S(=O)(=O)c1ccc(N)cc1 | 192 |
| Cc1c(NC2=C(Cl)C(=O)N(c3ccccc3)C2=O)c(=O)n(-c2ccccc2)n1C | 123 |
| C#CCNC(=O)c1nc(-c2ccc([S+](C)(=O)[O-])cc2)c2cnccn12 | < 1 |
| Cc1noc(C)c1-c1ccc2ncnc(NCc3cccc(Cl)c3)c2c1 | 970 |
| Cc1cc(/C=C2/C(=O)Nc3ccccc32)cc(C)c1O | 976 |
| O=C(C=Cc1cccnc1)NCCCCC1CCN(C(=O)c2ccccc2)CC1 | 130 |
| CC(C)C(=O)N1CCc2ccc(OCc3nc(C(=O)N4CCCC4)co3)cc2C1c1cccc(F)c1 (stereo not given) | 188 |
| CC(C)NC(=O)c1nc(-c2ccc(Cl)nc2)c2ccccn12 | > 1000 |
| COCCN1CCNc2nc(COc3ccc(C(C)C)cc3)n(Cc3ccccc3)c2C1=O | 12 |
| Oc1ccc(CNc2ccccc2C(F)(F)F)c2cccnc12 | 17 |
| COc1ccc(CN2CCNc3cc(Nc4ccccc4)ncc3C2)cn1 | 834 |
| COC(=O)CNC(=O)c1nc(-c2ccc(F)cc2)c2ccccn12 | > 1000 |
| Nc1nc2c(s1)C(c1cc(Cl)ccc1F)CC(=O)N2 (stereo not given) | 476 |
| Fc1ccc(Nc2nc(-c3ccncc3)nc3ccccc23)cc1F | 376 |
| Fc1cnc(-c2ccccc2C(F)F)nc1NCc1ccc(-c2ccn[nH]2)cc1 | > 1000 |
| COc1ccccc1Nc1ccnc(N2CCN(C(=O)c3ccc(F)cc3)CC2)n1 | > 1000 |
| COc1ccc(C2CC(=O)Nc3nc(N)sc32)cc1OC (stereo not given) | 36.1 |
| Cc1ccc(C2=NN=C(NC(=O)CSc3nncn3C)SC2)cc1 | 147 |
| C#CCOc1ccc(-c2nnc(Nc3ccc(NC(C)=O)cc3)c3ccccc23)cc1 | 502 |
| CC(C)(C)OC(=O)N[C@@H](Cc1ccc(OS(=O)(=O)c2cccc3cnccc23)cc1)C(=O)N1CCCN(C(=O)OC(C)(C)C)CC1 | 818 |
| Nc1cc(CN2C(=O)c3ccccc3C2=O)cc(Cl)c1O | 352 |
| CSc1nnc2c3ccccc3n(CCc3ccccc3)c2n1 | > 1000 |
| CCC(CC)C(=O)NC[C@@H]1C=C(C)[C@H](Cc2nc3c(C)cccc3[nH]2)C[C@H]1C(C)C | > 1000 |
| CCN(CC)S(=O)(=O)c1ccc(N2CCCC2)c(NS(=O)(=O)c2ccc(C)cc2)c1 | 253 |
| Cc1ccc2oc(NC3=NC4(CCCC4)C4=C(CCCC4=O)N3)nc2c1 | 543 |
| CCCCNC(=O)CN1CCN(c2ncc(NC(=O)c3ccc(Cl)cc3)cc2C(=O)O)CC1 | < 1 |
| Cc1cc(F)ccc1S(=O)(=O)Nc1cnccc1C(=O)Nc1nc(-c2ccccc2)cs1 | > 1000 |

| SMILES | Papp [×10⁻⁶ cm/s] |
| --- | --- |
| Brc1ccc(-c2csc(N3CCNCC3)n2)cc1 | > 1000 |
| [2H]C([2H])(Nc1nc(-c2ccccc2C([2H])(C([2H])([2H])[2H])C([2H])([2H])[2H])ncc1C)c1ccc(-n2ccnn2)cc1 | > 1000 |
| CN1CCC(N(Cc2cccs2)c2ccccc2)CC1 | > 1000 |
| OCc1ccc(-c2cc3c(ccn3Cc3cccnc3)c(C3=CCOCC3)n2)cc1 | 478 |
| Cc1cc(F)ccc1-c1nc(NCCN=C(N)NC#N)nc2c1ccc(=O)n2-c1c(F)cccc1F | < 1 |
| CCCSc1nc(N[C@@H]2C[C@H]2c2ccc(F)c(F)c2)c2nnn([C@@H]3C[C@H](OCCO)[C@@H](O)[C@H]3O)c2n1 | 776 |
| Cc1sc2c(c1C)C(c1ccc(Cl)cc1)=N[C@H](CC(=O)NCCCCNC(=O)COc1cccc3c1C(=O)N([C@H]1CCC(=O)NC1=O)C3=O)c1nnc(C)n1-2 | < 1 |
| COc1cc(NC(=O)c2nc3ccccc3n(C)c2=O)cc(OC)c1OC | 145 |
| CNc1nc(C#N)c(-c2cccc3ccccc23)o1 | > 1000 |
| O=C(Oc1ccc[nH]c1=O)c1cc([N+](=O)[O-])cc([N+](=O)[O-])c1 | 16.2 |
| O=C(Nc1ccc(Cl)cc1)Nc1ccc(Cl)c(Cl)c1 | 240 |
| O=c1cc(-c2ccccc2)oc2cc(O)cc(O)c12 | 452 |
| COC(=O)c1ccnc(-c2cc(C(=O)Nc3ccc(C4(N)CC4)cc3)ccn2)c1 | > 1000 |
| O=c1cc(-c2ccc(O)c(O)c2)oc2cc(O)cc(O)c12 | 120 |
| Cc1ccc(-c2nc(NCC(=O)Nc3cccc(C(=O)O)c3)c3ccccc3n2)cc1 | < 1 |
| O=C(NCC1CCOCC1)C1CC(=O)N(c2n[nH]c3cc(Br)ccc23)C1 (stereo not given) | 16.1 |
| COc1ccc(CCn2c(N)cc(=O)[nH]c2=S)cc1OC | 7.34 |
| CN(C)C(=O)C1CCN(c2nc(-c3ccc(Br)cc3)cs2)CC1 | 583 |
| O=C(NC1CCCc2c1cnn2-c1cccc(O)c1)c1ccccn1 (stereo not given) | 836 |
| Cc1cccc(-n2cnc3cc(C(=O)N4CCCC(C(C)C)C4)ccc32)c1 (stereo not given) | > 1000 |
| Fc1ccc(Nc2nc(Nc3ccncc3)nc3ccccc23)cc1F | 40.4 |
| Cc1ccc(S(=O)(=O)Nc2cc3c(cc2C(=O)Nc2nc(-c4ccccc4)cs2)OCO3)cc1 | 19.3 |
| COc1cccc(CNc2ccc(S(=O)(=O)Nc3nccs3)cc2)c1N | 28.8 |
| Cc1ccc(S(=O)(=O)Nc2cnccc2C(=O)Nc2nc(-c3ccccc3F)cs2)cc1 | 51.2 |
| C[S+](=O)([O-])c1ccc(-c2nc(C(=O)N3CCOCC3)n3ccncc23)cc1 | 8.31 |
| O=[S+]([O-])(Nc1ccccc1)c1ccc(NCc2ccc(Cl)cc2O)cc1 | 524 |
| Cn1c(=O)c2c(nc(Cl)n2Cc2ccc(Cl)cc2)n(C)c1=O | > 1000 |

| SMILES | Papp [×10⁻⁶ cm/s] |
| --- | --- |
| Cc1cc(-c2nnc3n2CCCCC3)c(C)n1-c1ccc(C#N)cc1 | 215 |
| COC(=O)c1ccnc(-c2cc(C(=O)NCCc3ccccc3)ccn2)c1 | 398 |
| Cc1cc(-c2cc3c(nc2-c2ccccc2)nc(C(=O)NCCN(C)C)n3C)ccn1 | 320 |
| CN(C)C(=O)c1nc(-c2ccc(S(C)(=O)=O)cc2)c2cnccn12 | 16.8 |
| O=C(NC1CCN(c2cc(-c3ccc(Cl)cc3)[nH]n2)C1)c1ccccc1 (stereo not given) | 706 |
| CCOc1ccc(N2CC(c3nc(-c4cc(OC)c(OC)c(OC)c4)no3)CC2=O)cc1 (stereo not given) | > 1000 |
| Cc1ccccc1S(=O)(=O)Nc1cnccc1C(=O)Nc1nc(-c2ccccc2)cs1 | > 1000 |
| Cc1nn2c(c1-c1ccccc1-c1ccccc1)N(Cc1ccccc1)CCC2 | 381 |
| c1ccc2c(Nc3ccn[nH]3)nc(-c3ccncc3)nc2c1 | 880 |
| CC(C)N(CCC(=O)c1ccc2ccccc2c1)Cc1ccccc1 | > 1000 |
| COc1cc(-c2cn(C)c(=O)c3cnccc23)c(OC)cc1CN(C)C | 28.9 |
| CCN(CC)C(=O)N1c2ccccc2C=Cc2ccccc21 | > 1000 |
| COc1cccc(-c2csc(NC(=O)c3ccncc3NS(=O)(=O)c3ccc(C)cc3)n2)c1 | > 1000 |
| Cc1ccccc1C(=O)N1CCc2cc(-c3csc(NC(=O)Cc4ccc5c(c4)OCO5)n3)ccc21 | > 1000 |
| COc1cc(C(=S)N2CCN(CCO)CC2)ccc1OCc1ccc(C)cc1 | > 1000 |
| Cc1ccnc(NC(=S)N2CCC(c3cccc(C(F)(F)F)c3)CC2)c1 | 672 |
| Cc1ccc(S(=O)(=O)Nc2cc(Cl)ccc2C(=O)Nc2nc(-c3ccccc3)cs2)cc1 | 23.4 |
| Cc1noc(C)c1-c1ccc2ncnc(N3CCC(C(=O)O)CC3)c2c1 | 1.5 |
| COc1ccc(-c2cn[nH]c2-c2ccc(OC)cc2)cc1 | > 1000 |
| CCOC(=O)N1CCN(Cc2nc3c(c(=O)n(C)c(=O)n3C)n2Cc2ccc(F)cc2)CC1 | 550 |
| Cc1sc(NC(=O)Cc2ccc3c(c2)OCO3)nc1-c1ccc2c(c1)CCN2C(=O)c1ccccc1F | 1.4 |
| O=C1CCCC2=C1C(c1ccncc1Br)N=C(Nc1nc3ccccc3o1)N2 (stereo not given) | > 1000 |
| Cc1ccnc(NC(=S)N2CCC(Nc3cccc(C(F)(F)F)c3)CC2)c1 | 835 |
| Cc1ccc(S(=O)(=O)Nc2cnccc2C(=O)Nc2nc(-c3ccc(Oc4ccccc4)cc3)cs2)cc1 | 44.4 |
| Oc1ccc(CNc2ccc(F)cc2F)c2cccnc12 | 178 |
| O=C(O)c1cccc(-n2cccc2/C=C2/NC(=O)N(c3cccc(Cl)c3)C2=O)c1 | 3.96 |
| Cc1ccc(NC(=O)c2cc(-c3ccc[nH]3)n[nH]2)cc1F | 157 |

| SMILES | Papp [×10⁻⁶ cm/s] |
| --- | --- |
| COc1ccc(Cl)cc1NC(=O)c1sc2nc3c(cc2c1N)N1CCC3CC1 | 55 |
| COc1ccc(-n2nc(C3CCCN([S+](=O)([O-])c4cccc(C(F)(F)F)c4)C3)[nH]c2=O)cc1 (stereo not given) | 569 |
| N[C@H]1CN(c2c(F)cc3c(=O)c(C(=O)O)cn(C4C[C@@H]4F)c3c2Cl)CC12CC2 (stereo not given in full) | < 1 |
| O=S(=O)(Nc1ccc(S(=O)(=O)Nc2nccs2)cc1)c1ccc2ccccc2c1 | 7.37 |
| CCCc1cc(C)[nH]c(=O)c1CNC(=O)c1cc(-c2ccnc(N3CCN(C)CC3)c2)cc2c1cnn2C(C)C | 782 |
| Cc1ccc(NC2=C(c3ccc(C(F)(F)F)cc3)C(=O)c3ccccc32)cc1F | < 1 |
| COc1ccc(NC(=O)c2cc(-c3ccc[nH]3)n[nH]2)cc1OC | 120 |
| Cc1cccc(C)c1C(=O)Nc1cccc([S+](=O)([O-])N(C)C)c1 | 355 |
| Cn1cc2c3c(cccc31)CN(C(=O)c1ccc(F)c(Cl)c1)CC2 | > 1000 |
| Cc1ccc(C(=O)Nc2ccc(CN3CCN(C)CC3)c(C(F)(F)F)c2)cc1C#Cc1cnc2cccnn12 | > 1000 |
| CCOc1ccc(-c2csc(N3CCC(C(N)=O)CC3)n2)cc1 | > 1000 |
| COC(=O)c1nc(-c2cccc3ccccc23)oc1OC | 939 |
| CCCCOc1ccccc1C(=O)Nc1ccccc1C(=O)Nc1cccc(S(=O)(=O)C(F)(F)F)c1 | 5.2 |
| CCc1cccc(NC(=O)c2cc(-c3ccc[nH]3)n[nH]2)c1 | 87.7 |
| C[C@H]1CN(C(=O)c2nn(C)c3ccccc23)C[C@@H]1c1nc(-c2cccnc2)no1 | 982 |
| Clc1ccc2ncc(-c3cccc(NC4CCNCC4)n3)n2c1 | 807 |
| Cc1ccccc1NC(=O)Nc1cccs1 | 106 |
| O=C(Cc1ccc(Cl)c(Cl)c1)Nc1ccc([S+](=O)([O-])Nc2ccccn2)cc1 | 651 |
| Cc1ccc2nc(NC3=NC(c4[nH]ncc4Cl)C4=C(CCCC4=O)N3)oc2c1 (stereo not given) | 997 |
| COc1ccc2[nH]c3c(c2c1)CCNC31CCN(S(=O)(=O)c2c(C)noc2C)CC1 | 79 |
| Fc1cc(Nc2nc(-c3ccncc3)nc3ccccc23)ccc1-c1cncnc1 | 7.26 |
| Cc1ccc2oc(NC3=NC(c4[nH]ncc4Cl)C4=C(CCCC4=O)N3)nc2c1 (stereo not given) | 1000 |
| CNc1nc(-c2ccc3c(N)n[nH]c3c2)cc(N2C[C@@H](C(=O)NC3CCCCC3)CC[C@@H]2C)n1 | 14.4 |
| NC(=O)N1CCCC(C(=O)N2CCCN(c3ccc(F)cc3)CC2)C1 (stereo not given) | 111 |
